# Data as given in patent US4740601A, “Imidazole derivatives having antimicrobial activities” (SS Pharmaceutical Co., Ltd., priority 1985, dated 1988).
# Tested on: Bacillus subtilis ATCC 6633
# Assay: antimicrobial activity, MIC
# Type: cell-based
# Conditions: Bacillus subtilis ATCC 6633
row,Structure (SMILES),MIC
1,"CCCOc1ccccc1C(=CSCc1ccccc1)n1ccnc1 (single isomer, unassigned) [Compound 4]",6.25 µg/mL

# Tested on: Staphylococcus aureus FDA 209P
# Assay: antimicrobial activity, MIC
# Type: cell-based
# Conditions: not given
row,Structure (SMILES),MIC
1,"CCCOc1ccccc1C(=CSCc1ccccc1)n1ccnc1 (single isomer, unassigned) [Compound 4]",25 µg/mL

# Tested on: Staphylococcus aureus Terajima
# Assay: antimicrobial activity, MIC
# Type: cell-based
# Conditions: not given
row,Structure (SMILES),MIC
1,"CCCOc1ccccc1C(=CSCc1ccccc1)n1ccnc1 (single isomer, unassigned) [Compound 4]",12.5 µg/mL

# Tested on: Staphylococcus aureus Smith
# Assay: antimicrobial activity, MIC
# Type: cell-based
# Conditions: not given
row,Structure (SMILES),MIC
1,"CCCOc1ccccc1C(=CSCc1ccccc1)n1ccnc1 (single isomer, unassigned) [Compound 4]",12.5 µg/mL

# Tested on: Staphylococcus epidermidis ATCC 12228
# Assay: antimicrobial activity, MIC
# Type: cell-based
# Conditions: Staphylococcus epidermidis ATCC 12228
row,Structure (SMILES),MIC
1,"CCCOc1ccccc1C(=CSCc1ccccc1)n1ccnc1 (single isomer, unassigned) [Compound 4]",12.5 µg/mL

# Tested on: Sarcina lutea ATCC 9341
# Assay: antimicrobial activity, MIC
# Type: cell-based
# Conditions: Sarcina lutea ATCC 9341
row,Structure (SMILES),MIC
1,"CCCOc1ccccc1C(=CSCc1ccccc1)n1ccnc1 (single isomer, unassigned) [Compound 4]",6.25 µg/mL

# Tested on: Streptococcus faecalis IFO 12964
# Assay: antimicrobial activity, MIC
# Type: cell-based
# Conditions: Streptococcus faecalis IFO 12964
row,Structure (SMILES),MIC
1,"CCCOc1ccccc1C(=CSCc1ccccc1)n1ccnc1 (single isomer, unassigned) [Compound 4]",12.5 µg/mL

# Tested on: Micrococcus lysodeixticus IFO 3333
# Assay: antimicrobial activity, MIC
# Type: cell-based
# Conditions: Micrococcus lysodeixticus IFO 3333
row,Structure (SMILES),MIC
1,"CCCOc1ccccc1C(=CSCc1ccccc1)n1ccnc1 (single isomer, unassigned) [Compound 4]",3.12 µg/mL

# Tested on: Candida albicans NHL 4019
# Assay: antimicrobial activity, MIC
# Type: cell-based
# Conditions: Candida albicans NHL 4019
row,Structure (SMILES),MIC
1,"CCCOc1ccccc1C(=CSCc1ccccc1)n1ccnc1 (single isomer, unassigned) [Compound 4]",25 µg/mL

# Tested on: Candida albicans Yu-1200
# Assay: antimicrobial activity, MIC
# Type: cell-based
# Conditions: not given
row,Structure (SMILES),MIC
1,"CCCOc1ccccc1C(=CSCc1ccccc1)n1ccnc1 (single isomer, unassigned) [Compound 4]",> 100 µg/mL

# Tested on: Saccharomyces cerevisiae ATCC 9763
# Assay: antimicrobial activity, MIC
# Type: cell-based
# Conditions: Saccharomyces cerevisiae ATCC 9763
row,Structure (SMILES),MIC
1,"CCCOc1ccccc1C(=CSCc1ccccc1)n1ccnc1 (single isomer, unassigned) [Compound 4]",< 0.2 µg/mL

# Tested on: Saccharomyces ruxii 6507
# Assay: antimicrobial activity, MIC
# Type: cell-based
# Conditions: Saccharomyces ruxii 6507
row,Structure (SMILES),MIC
1,"CCCOc1ccccc1C(=CSCc1ccccc1)n1ccnc1 (single isomer, unassigned) [Compound 4]",< 0.2 µg/mL

# Tested on: Aspergillus niger ATCC 9642
# Assay: antimicrobial activity, MIC
# Type: cell-based
# Conditions: Aspergillus niger ATCC 9642
row,Structure (SMILES),MIC
1,"CCCOc1ccccc1C(=CSCc1ccccc1)n1ccnc1 (single isomer, unassigned) [Compound 4]",1.56 µg/mL

# Tested on: Penicillium chrysogenum ATCC 6010
# Assay: antimicrobial activity, MIC
# Type: cell-based
# Conditions: Penicillium chrysogenum ATCC 6010
row,Structure (SMILES),MIC
1,"CCCOc1ccccc1C(=CSCc1ccccc1)n1ccnc1 (single isomer, unassigned) [Compound 4]",3.12 µg/mL

# Tested on: Trichophyton mentagrophytes QM 248
# Assay: antimicrobial activity, MIC
# Type: cell-based
# Conditions: Trichophyton mentagrophytes QM 248
row,Structure (SMILES),MIC
1,"CCCOc1ccccc1C(=CSCc1ccccc1)n1ccnc1 (single isomer, unassigned) [Compound 4]",< 0.2 µg/mL

# Tested on: Trichophyton mentagrophytes IFO 5812
# Assay: antimicrobial activity, MIC
# Type: cell-based
# Conditions: Trichophyton mentagrophytes IFO 5812
row,Structure (SMILES),MIC
1,"CCCOc1ccccc1C(=CSCc1ccccc1)n1ccnc1 (single isomer, unassigned) [Compound 4]",< 0.2 µg/mL

# Tested on: Trichophyton tonsurans IFO 5928
# Assay: antimicrobial activity, MIC
# Type: cell-based
# Conditions: Trichophyton tonsurans IFO 5928
row,Structure (SMILES),MIC
1,"CCCOc1ccccc1C(=CSCc1ccccc1)n1ccnc1 (single isomer, unassigned) [Compound 4]",< 0.2 µg/mL

# Tested on: Trichophyton rubrum NHL J
# Assay: antimicrobial activity, MIC
# Type: cell-based
# Conditions: Trichophyton rubrum NHL J
row,Structure (SMILES),MIC
1,"CCCOc1ccccc1C(=CSCc1ccccc1)n1ccnc1 (single isomer, unassigned) [Compound 4]",< 0.2 µg/mL

# Tested on: Microsporum gypseum IFO 8231
# Assay: antimicrobial activity, MIC
# Type: cell-based
# Conditions: Microsporum gypseum IFO 8231
row,Structure (SMILES),MIC
1,"CCCOc1ccccc1C(=CSCc1ccccc1)n1ccnc1 (single isomer, unassigned) [Compound 4]",< 0.2 µg/mL

# Tested on: Microsporum audounii IFO 6074
# Assay: antimicrobial activity, MIC
# Type: cell-based
# Conditions: Microsporum audounii IFO 6074
row,Structure (SMILES),MIC
1,"CCCOc1ccccc1C(=CSCc1ccccc1)n1ccnc1 (single isomer, unassigned) [Compound 4]",< 0.2 µg/mL

# Tested on: Microsporum cookei IFO 8303
# Assay: antimicrobial activity, MIC
# Type: cell-based
# Conditions: Microsporum cookei IFO 8303
row,Structure (SMILES),MIC
1,"CCCOc1ccccc1C(=CSCc1ccccc1)n1ccnc1 (single isomer, unassigned) [Compound 4]",1.56 µg/mL

# Tested on: Epidermophyton floccosum IFO 9045
# Assay: antimicrobial activity, MIC
# Type: cell-based
# Conditions: Epidermophyton floccosum IFO 9045
row,Structure (SMILES),MIC
1,"CCCOc1ccccc1C(=CSCc1ccccc1)n1ccnc1 (single isomer, unassigned) [Compound 4]",1.78 µg/mL

# Tested on: Aspergillus oryzae IMF 4014
# Assay: antimicrobial activity, MIC
# Type: cell-based
# Conditions: Aspergillus oryzae IMF 4014
row,Structure (SMILES),MIC
1,"CCCOc1ccccc1C(=CSCc1ccccc1)n1ccnc1 (single isomer, unassigned) [Compound 4]",1.56 µg/mL

# Tested on: Cladosporium fulvum IAM 5006
# Assay: antimicrobial activity, MIC
# Type: cell-based
# Conditions: Cladosporium fulvum IAM 5006
row,Structure (SMILES),MIC
1,"CCCOc1ccccc1C(=CSCc1ccccc1)n1ccnc1 (single isomer, unassigned) [Compound 4]",25 µg/mL

# Tested on: Fusarium moniliforme IAM 5062
# Assay: antimicrobial activity, MIC
# Type: cell-based
# Conditions: Fusarium moniliforme IAM 5062
row,Structure (SMILES),MIC
1,"CCCOc1ccccc1C(=CSCc1ccccc1)n1ccnc1 (single isomer, unassigned) [Compound 4]",0.78 µg/mL

# Tested on: Helminthosporium sesamum IAM 5012
# Assay: antimicrobial activity, MIC
# Type: cell-based
# Conditions: Helminthosporium sesamum IAM 5012
row,Structure (SMILES),MIC
1,"CCCOc1ccccc1C(=CSCc1ccccc1)n1ccnc1 (single isomer, unassigned) [Compound 4]",< 0.2 µg/mL

# Tested on: Pyricularia oryzae IAM 5016
# Assay: microbe, parasite or virus in culture
# Type: cell-based
# Conditions: Pyricularia oryzae IAM 5016
row,Structure (SMILES),MIC
1,"CCCOc1ccccc1C(=CSCc1ccccc1)n1ccnc1 (single isomer, unassigned) [Compound 4]",< 0.2 µg/mL

# Tested on: Debaryomyces kloeckeri IFO 0015
# Assay: antimicrobial activity, MIC
# Type: cell-based
# Conditions: not given
row,Structure (SMILES),MIC
1,"CCCOc1ccccc1C(=CSCc1ccccc1)n1ccnc1 (single isomer, unassigned) [Compound 4]",6.25 µg/mL

# Tested on: Gibberella fujikuroi IAM 8046
# Assay: antimicrobial activity, MIC
# Type: cell-based
# Conditions: Gibberella fujikuroi IAM 8046
row,Structure (SMILES),MIC
1,"CCCOc1ccccc1C(=CSCc1ccccc1)n1ccnc1 (single isomer, unassigned) [Compound 4]",0.78 µg/mL
